Literature values as cited in US20050043369A1, “Bactericidal antimicrobial methods and compositions for use in treating gram positive infections” (Protez Pharmaceuticals Inc., priority 2000, published 2005).

System: S. aureus (SA1199)
Details: vancomycin; Jeffrey et al., 1999; cited from earlier work

In the case of `CN[C@H](CC(C)C)C(=O)N[C@H]1C(=O)N[C@@H](CC(N)=O)C(=O)N[C@H]2C(=O)N[C@H]3C(=O)N[C@H](C(=O)N[C@H](C(=O)O)c4cc(O)cc(O)c4-c4cc3ccc4O)[C@H](O)c3ccc(c(Cl)c3)Oc3cc2cc(c3O[C@@H]2O[C@H](CO)[C@@H](O)[C@H](O)[C@H]2O[C@H]2C[C@](C)(N)[C@H](O)[C@H](C)O2)Oc2ccc(cc2Cl)[C@H]1O` [vancomycin], the “time to decrease the viability of S. aureus by 1000-fold” value is given as 4 to 8 h.
